Assay results: PubChem BioAssay (NCI)
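Five compound concentrations were applied to cells in 96-well plates for 48 hours; endpoints were derived by simple linear interpolation of the resulting dose-response curve. TGI: total growth inhibition.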

What was measured:
Test in all cases: inhibition of tumour cell growth, NCI panel, 48 h
BT-549 breast = test system: BT-549 breast
CAKI-1 renal = test system: CAKI-1 renal
CCRF-CEM leukemia = test system: CCRF-CEM leukemia
DU-145 prostate = test system: DU-145 prostate
EKVX NSCLC = test system: EKVX NSCLC
HCT-116 colon = test system: HCT-116 colon
IGROV1 ovarian = test system: IGROV1 ovarian
MALME-3M melanoma = test system: MALME-3M melanoma
NCI-H460 lung = test system: NCI-H460 lung
OVCAR-3 ovarian = test system: OVCAR-3 ovarian
OVCAR-4 ovarian = test system: OVCAR-4 ovarian
SF-295 CNS = test system: SF-295 CNS
SF-539 CNS = test system: SF-539 CNS
SK-MEL-28 melanoma = test system: SK-MEL-28 melanoma
SK-OV-3 ovarian = test system: SK-OV-3 ovarian
SN12C renal = test system: SN12C renal
SNB-75 CNS = test system: SNB-75 CNS
T-47D breast = test system: T-47D breast
UACC-257 melanoma = test system: UACC-257 melanoma
UO-31 renal = test system: UO-31 renal

Measured: TGI

CC(=O)Nc1cccc(N2C(=O)/C(=C\c3cccc(Oc4ccccc4)c3)S(=O)(=O)C2c2ccccc2)c1 (stereo not given)
> 100 µM: all assays above

CC(=O)NC(Cc1ccccc1)NC(=O)O (stereo not given)
> 100 µM: all assays above

O=C1/C(=C/c2ccc(O)cc2)CCc2ccc([N+](=O)[O-])cc21
> 81.6 µM: UO-31 renal
> 100 µM: all other assays above

COc1cc2c(c(O)c1OC)C(=O)[C@@H]1CCC(=O)N1C2c1ccccc1 (stereo not given in full)
> 100 µM: all assays above

O=C1OC(C2Cc3ccc4c(c3C2=O)CCC4)c2ccccc21 (stereo not given)
> 100 µM: all assays above

COc1ccc2c(C)c(Oc3c(Cl)c(Cl)c(O)c(C#N)c3C#N)oc2c1
> 100 µM: all assays above

O=C(NCCCNCCN1C(=O)c2cccc3cc([N+](=O)[O-])cc(c23)C1=O)c1cc(-c2ccccc2)nc2ccccc12
5.07 µM: SF-539 CNS
15.2 µM: IGROV1 ovarian
22.8 µM: EKVX NSCLC
15.1 µM: OVCAR-4 ovarian
20.2 µM: BT-549 breast
14.1 µM: SNB-75 CNS
12.6 µM: NCI-H460 lung
16.8 µM: HCT-116 colon
7.46 µM: UO-31 renal
14.8 µM: SF-295 CNS
17.3 µM: DU-145 prostate
3.95 µM: UACC-257 melanoma
3.44 µM: SK-MEL-28 melanoma
23.7 µM: T-47D breast
21.6 µM: SK-OV-3 ovarian
3.24 µM: MALME-3M melanoma
18.9 µM: CAKI-1 renal | OVCAR-3 ovarian
17.1 µM: SN12C renal
22.2 µM: CCRF-CEM leukemia

O=S1(=O)c2ccccc2C(Nc2ccccc2)N1c1ccccc1 (stereo not given)
80 µM: T-47D breast
> 100 µM: all other assays above

COC(=O)c1cc(=O)n(-c2ccc3nn(C)nc3c2)cc1C(=O)OC
> 100 µM: all assays above
